{"source": "patent US20240148664A1", "about": "“LIPID AND COMPOSITION” (SOGO PHARMACEUTICAL CO., LTD., priority 2021, published 2024)", "key": {"[1]": {"assay": "Measurement of particle size, polydispersity index and zeta potential of lipid nanoparticle (Zetasizer)", "format": "physicochemical", "details": "lipid nanoparticle containing siRNA; for Zeta potential (mV): pH 7.4 Tris-HCl; for Particle size (nm) / PDI: main lipid/DPPC/cholesterol=45/10/45; for Particle size (nm): Z-average in ultrapure water; for PDI: ultrapure water", "method": "30 μL of each of the dialyzed lipid nanoparticle-containing solutions obtained by the above operation was measured out, 800 μL of ultrapure water was added to dilute the lipid nanoparticle-containing solution, and the diluted preparation solution was used to measure the particle size (nm) and the polydispersity index (PDI) by using a Zetasizer (manufactured by Malvern Panalytical, Zetasizer nano Ultra). The particle size was evaluated by Z-average in ultrapure water. The zeta potential was measured by using pH 7.4 Tris-HCl as a dilute solution."}, "[2]": {"assay": "siRNA / mRNA encapsulation rate of lipid nanoparticle (RiboGreen)", "format": "physicochemical", "details": "siRNA encapsulation rate of lipid nanoparticle", "method": "The siRNA encapsulation rate and the mRNA encapsulation rate of the lipid nanoparticle were obtained as follows. First, a surfactant (Sigma-Aldrich, Triton (registered trademark), X-100 (reducing type)) was added to the lipid nanoparticle-containing solution to disrupt the lipid nanoparticle to release the encapsulated siRNA or mRNA. The amounts of the lipid nanoparticle-containing solution and the surfactant were adjusted such that the siRNA or the mRNA was 2 pmol and the surfactant was 1% in 40 μL of the solution after adding the surfactant to the lipid nanoparticle-containing solution. Next, the RiboGreen reagent (reagent that reacts with siRNA to emit fluorescence, manufactured by Thermo Fisher Scientific, Quant-iT (registered trademark) RiboGreen (registered trademark) RNA Assay Kit) was added to the solution, and the fluorescence intensity was measured under conditions of an excitation wavelength of 480 nm and a fluorescence wavelength of 520 nm with a fluorescence intensity meter (manufactured by TECAN, Infinite M200). Specifically, 75 μL of the RiboGreen reagent diluted to 1/2000 was added to a diluted solution obtained by adding 65 μL of citrate buffer to 10 μL of the solution, and the fluorescence intensity was measured. This makes it possible to relatively measure the total amount of the siRNA or the total amount of the mRNA present in the solution.\nSubsequently, the RiboGreen reagent was added to the lipid nanoparticle-containing solution without adding a surfactant, and the fluorescence intensity was measured in the same manner with a fluorescence intensity meter. By not adding a surfactant, it is possible to relatively measure the amount of the siRNA or the mRNA free in the solution without being encapsulated in the lipid nanoparticle.\nThen, the fluorescence intensity obtained from the solution to which the surfactant was added obtained as described above was fluorescence intensity a, and the fluorescence intensity thus obtained from the solution to which no surfactant was added obtained as described above was fluorescence intensity b, and according to the expression (a−b)/a×100, the siRNA encapsulation rate (%) or the mRNA encapsulation rate (%) of the lipid nanoparticle was obtained. Each of fluorescence intensity a and fluorescence intensity b is a value obtained by subtracting a blank from the arithmetic average value of the results of three measurements for each solution. The blank was measured by carrying out the same operation on a well containing water containing no cell or lipid nanoparticle."}, "[3]": {"tested_on": "HT1080-EGFP (human/fibrosarcoma) cells", "assay": "Evaluation of toxicity: LDH assay", "format": "cell-based", "details": "lipid nanoparticle containing siRNA; absorbance relative to control cells without lipid nanoparticle set at 1.00", "method": "(§1) A. Provision of Cells • (i) A liquid medium (DMEM/Ham's F12, FBS+, P/S+) (FBS: fetal bovine serum, P/S: antibiotic) was taken out from a refrigerator and temperature-controlled in an incubator set at 37° C. • (ii) A cryotube containing the cells was taken out from a −80° C. freezer and thawed at once in an incubator set at 37° C. • (iii) A stock solution of the thawed cells was collected in a capped test tube. • (iv) The tube containing the cells was washed with the liquid medium, and the wash was also collected in the test tube. • (v) The tube was subjected to a centrifuge to precipitate the cells. • (vi) The supernatant was aspirated, and the liquid medium was added and gently tapped to disperse the cells. • (vii) A small amount of the cells-dispersed liquid medium was collected, and the number of cells was observed and counted under a microscope. • (viii) The cells were seeded in a 24-well plate such that the number of cells was 2×10^4 cells per well. For the plate for an LDH assay described later, the cells were seeded in a 96-well plate such that the number of cells was 4×10^3 cells per well. • (ix) The 24-well plate or the 96-well plate was placed in an incubator, and the cells were cultured for 24 hours under conditions of 37° C. and 5% CO2.\nThe introduction of lipid nanoparticles into cells for an LDH assay described later was carried out as follows. • (i) A 96-well plate was taken out from an incubator. • (ii) The liquid medium supernatant in the 96-well plate was aspirated and washed with phosphate buffered saline (PBS). • (iii) 160 μL of a liquid medium containing 10% FBS (FBS+/P/S+) was added to the washed 96-well plate. In addition, 40 μL of an LNP solution having an adjusted concentration was added. • (iv) The 96-well plate was placed in the incubator, and the cells were cultured for 24 hours under conditions of 37° C. and 5% CO2.\nFor Examples 1 to 9, a CCK-8 assay or an LDH assay was carried out to measure the metabolic activity of viable cells and relatively quantify the number of surviving cells to evaluate the toxicity of lipid nanoparticles.\nAn LDH assay was carried out by using a viable cell counting kit (DOJINDO LABORATORIES, Cytotoxicity LDH Assay Kit-WST) as follows. • (i) 20 μL of a lysis buffer was added to each of positive control wells and incubated at 37° C. for 30 minutes in an incubator. • (ii) 100 μL of the supernatant was taken from each well and transferred to a 96-well plate for measurement. • (iii) 100 μL of the reagent mixture attached to the kit was added to all the wells, and a color reaction was carried out for 30 minutes at room temperature with exclusion of light. • (iv) 50 μL of the stop solution reagent attached to the kit was added to all the wells. • (v) The 96-well plate was measured under conditions of a measurement wavelength of 490 nm and a target wavelength of 630 nm with a plate reader (manufactured by TECAN, Infinite M200) to calculate the absorbance. The absorbance was calculated with the absorbance of control cells to which no lipid nanoparticle was added set at 1.00. When the obtained value was 0.50 or less, a rating of double-circle (excellent) was given, when the obtained value was more than 0.50 and 1.0 or less, a rating of circle (good) was given, when the obtained value was more than 1.0 and less than 6.0, a rating of triangle (fair) was given, and when the obtained value was 6.0 or more, a rating of X-mark (poor) was given."}, "[4]": {"tested_on": "HT1080-EGFP (human/fibrosarcoma) cells", "assay": "Evaluation of knockdown effect (GFP assay), Cell experiment 1", "format": "cell-based", "details": "lipid nanoparticle containing siRNA against EGFP; fluorescence intensity with control cells without lipid nanoparticle set at 100", "method": "A cell experiment was carried out by using HT1080-EGFP (human/fibrosarcoma) cells in order to evaluate lipid nanoparticles encapsulating an siRNA produced by using the lipids of the Examples and the Comparative Examples. These cells are cells provided with a green fluorescent protein gene (EGFP). The expression of EGFP can be easily confirmed by measuring the fluorescence intensity of a solution in which the cells are lysed, and thus by acting lipid nanoparticles encapsulating an siRNA that suppresses the expression of EGFP and observing any decrease in fluorescence intensity, the performance of the lipid nanoparticles used can be evaluated. Hereinafter, the procedure of the cell experiment will be shown.\nas §1\nThe produced lipid nanoparticles were introduced into cells. • (i) Fetal bovine serum (FBS) was added to a liquid medium (FBS-, P/S-) temperature-controlled as in (i) of A above, in such a way as to reach 10%. • (ii) A 24-well plate was taken out from an incubator, and the liquid medium supernatant in the 24-well plate was aspirated and washed with phosphate buffered saline (PBS). • (iii) 400 μL of the liquid medium produced in (i) above was added to the washed 24-well plate. In addition, 100 μL of an LNP solution having an adjusted concentration was added. • (iv) The 24-well plate was placed in the incubator, and the cells were cultured (for 24 hours). • (v) After 24 hours, the liquid medium supernatant in the 24-well plate was aspirated, and 500 μL of a liquid medium containing 10% FBS (FBS+/P/S+) was added. • (vi) The 24-well plate was placed in the incubator, and the cells were cultured for 24 hours under conditions of 37° C. and 5% CO2.\nBy carrying out a GFP assay, the EGFP expression level in cells was measured to evaluate the effect of knocking down the green fluorescent protein gene (EGFP) by lipid nanoparticles. • (i) A 24-well plate was taken out from an incubator and washed with PBS. • (ii) A 1% octylglucoside solution to which a protease inhibitor was added was added in order to disrupt cells. Stirring with a pipette lysed the cells. • (iii) The cell lysate was transferred to an Eppendorf tube and subjected to a centrifuge. • (iv) 150 μL of the supernatant was collected and added to a plate for fluorescence measurement. • (v) The fluorescence intensity was measured under conditions of an excitation wavelength of 485 nm and a fluorescence wavelength of 535 nm with a plate reader (manufactured by TECAN, Infinite M200). The fluorescence intensity was calculated with the fluorescence intensity of control cells to which no lipid nanoparticle was added set at 100."}}, "data": [{"molecule": "CCCCCCCC/C=C\\CCCCCCCCC(CCCCCCC/C=C\\CCCCCCCC)OC(=O)C(N)C(C)O", "note": "(stereo not drawn) [Comparative Example 1, (9Z,27Z)-hexatriaconta-9,27-dien-18-yl 2-amino-3-hydroxybutanoate, reference compound]", "values": [{"measurement": "Zeta potential (mV)", "setting": "[1]", "result": 27.8, "unit": "mV"}]}, {"molecule": "CCCCCCCC/C=C\\CCCCCCCCCCCCC(CCCCCCCCCCC/C=C\\CCCCCCCC)OC(=O)[C@@H](N)CCCCN", "note": "(stereo partly drawn) [Comparative Example 7, (9Z,35Z)-tetratetraconta-9,35-dien-22-yl lysinate, reference compound]", "values": [{"measurement": "Encapsulation rate (%)", "setting": "[2]", "result": 99, "unit": "%"}, {"measurement": "Particle size (nm)", "setting": "[1]", "result": 149.8, "unit": "nm"}, {"measurement": "PDI", "setting": "[1]", "result": 0.021}, {"measurement": "Zeta potential (mV)", "setting": "[1]", "result": 21.0, "unit": "mV"}]}, {"molecule": "CC/C=C\\CCC(CCCCCCCCCCC/C=C\\CCCCCCCC)OC(=O)[C@@H](N)CCCCN", "note": "(stereo partly drawn) [Comparative Example 9, (3Z,19Z)-octacosa-3,19-dien-7-yl lysinate, reference compound]", "values": [{"measurement": "Encapsulation rate (%)", "setting": "[2]", "result": 100, "unit": "%"}, {"measurement": "Particle size (nm)", "setting": "[1]", "result": 759.4, "unit": "nm"}, {"measurement": "PDI", "setting": "[1]", "result": 0.508}, {"measurement": "Zeta potential (mV)", "setting": "[1]", "result": 32.7, "unit": "mV"}]}, {"molecule": "CCCCCCCC/C=C\\CCCCCCCCC(CCCCCCC/C=C\\CCCCCCCC)OC(=O)C(Cc1c[nH]cn1)NC(=O)C(N)CCCNC(=N)N", "note": "(stereo not drawn) [Example 3, (9Z,27Z)-hexatriaconta-9,27-dien-18-ylarginylhistidinate]", "values": [{"measurement": "LDH Assay", "setting": "[3]", "result": "◯ (when the obtained value was more than 0.50 and 1.0 or less, a rating of circle (good) was given)"}, {"measurement": "GFP Assay", "setting": "[4]", "result": 22}]}, {"molecule": "CCCCCCCC/C=C\\CCCCCCCCC(CCCCCCC/C=C\\CCCCCCCC)OC(=O)[C@@H](N)CCCCN", "note": "(stereo partly drawn) [Comparative Example 4, (9Z,27Z)-hexatriaconta-9,27-dien-18-yl lysinate, reference compound]", "values": [{"measurement": "Encapsulation rate (%)", "setting": "[2]", "result": 99, "unit": "%"}, {"measurement": "Particle size (nm)", "setting": "[1]", "result": 147.5, "unit": "nm"}, {"measurement": "PDI", "setting": "[1]", "result": 0.063}, {"measurement": "Zeta potential (mV)", "setting": "[1]", "result": 26.5, "unit": "mV"}, {"measurement": "GFP Assay", "setting": "[4]", "result": 86}]}, {"molecule": "CC/C=C\\CCC(CCCCCCC/C=C\\CCCCCC)OC(=O)[C@@H](N)CCCCN", "note": "(stereo partly drawn) [Comparative Example 8, (3Z,15Z)-docosa-3,15-dien-7-yl lysinate, reference compound]", "values": [{"measurement": "Encapsulation rate (%)", "setting": "[2]", "result": 100, "unit": "%"}, {"measurement": "Particle size (nm)", "setting": "[1]", "result": 233.1, "unit": "nm"}, {"measurement": "PDI", "setting": "[1]", "result": 0.187}, {"measurement": "Zeta potential (mV)", "setting": "[1]", "result": 29.7, "unit": "mV"}]}, {"molecule": "CCCCCC/C=C\\CCCCCCCCC(CCCCCCC/C=C\\CCCCCC)OC(=O)C(N)CCCCN", "note": "(stereo not drawn) [Comparative Example 6, (7Z,25Z)-dotriaconta-7,25-dien-16-yl lysinate, reference compound]", "values": [{"measurement": "Encapsulation rate (%)", "setting": "[2]", "result": 99, "unit": "%"}, {"measurement": "Particle size (nm)", "setting": "[1]", "result": 212.1, "unit": "nm"}, {"measurement": "PDI", "setting": "[1]", "result": 0.022}, {"measurement": "Zeta potential (mV)", "setting": "[1]", "result": 27.5, "unit": "mV"}]}, {"molecule": "CCCCC/C=C\\C/C=C\\CCCCCCCCC(CCCCCCC/C=C\\C/C=C\\CCCCC)OC(=O)C(NC(=O)C(N)CCCNC(=N)N)C(C)O", "note": "(stereo not drawn) [Example 10, (6Z,9Z,27Z,30Z)-hexatriaconta-6,9,27,30-tetraen-18-yl 2-(2-amino-5-guanidinopentanamido)-3-hydroxybutanoate]", "values": [{"measurement": "Encapsulation rate (%)", "setting": "[2]", "result": 98, "unit": "%"}, {"measurement": "Particle size (nm)", "setting": "[1]", "result": 103.6, "unit": "nm"}, {"measurement": "PDI", "setting": "[1]", "result": 0.095}, {"measurement": "Zeta potential (mV)", "setting": "[1]", "result": 36.8, "unit": "mV"}, {"measurement": "GFP Assay", "setting": "[4]", "result": 11}]}, {"molecule": "CCCCC/C=C\\CCCC(CC/C=C\\CCCCC)OC(=O)C(N)CCCCN", "note": "(stereo not drawn) [Comparative Example 5, (6Z,14Z)-icosa-6,14-dien-10-yl lysinate, reference compound]", "values": [{"measurement": "Encapsulation rate (%)", "setting": "[2]", "result": 100, "unit": "%"}, {"measurement": "Particle size (nm)", "setting": "[1]", "result": 324.5, "unit": "nm"}, {"measurement": "PDI", "setting": "[1]", "result": 0.731}, {"measurement": "Zeta potential (mV)", "setting": "[1]", "result": 50.8, "unit": "mV"}]}]}
